We go through 13 compounds from ChEMBL document CHEMBL1201862, “PubChem BioAssay data set” (2004).

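Five compound concentrations were applied to cells in 96-well plates for 48 hours; endpoints were derived by simple linear interpolation of the resulting dose-response curve. GI50: concentration for 50% inhibition of growth.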 Active and inactive are the calls of the source. Cut-off read from the data, not from the text of the source: active = GI50 up to about 1.1 µM and inactive = higher. A value given as a limit tells only on which side of the number the result lay.

Some test systems named below: 786-0; CCRF-CEM; COLO 205; DMS-114; DU-145; HCT-116; K562; MCF7; NCI/ADR-RES; PC-3; RXF 393; SF-268; SK-MEL-28; SNB-19; SNB-78; SR; UACC-257; UACC-62; UO-31.
Assay in all cases: DTP human tumour cell line panel, 48 h

By GI50 is commonly meant the concentration giving 50% growth inhibition. In the case of `CN[C@@H]1C[C@H]2O[C@@](C)([C@@H]1OC)n1c3ccccc3c3c4c(c5c6ccccc6n2c5c31)C(=O)N[C@@H]4O`, the GI50 is 0.0266 µM (active) with 786-0; 0.0165 µM (active) in the assay with CCRF-CEM; 0.0569 µM (active) in the assay with COLO 205; 0.104 µM (active) in the assay with DMS-114; 25.4 nM (active) in the assay on DU-145; 0.144 µM (active) in the assay with HCT-116. Further, the GI50 is 0.31 µM (active) with K562; 21.2 nM (active) with MCF7; 39.5 nM (active) with NCI/ADR-RES; 9.04 nM (active) in the assay with PC-3; < 0.0116 µM (active) with RXF 393; 0.0408 µM (active) in the assay with SF-268. Besides, the GI50 was 0.0551 µM (active) in the assay with SK-MEL-28; 0.12 µM (active) in the assay with SNB-19; 0.0344 µM (active) in the assay on SNB-78; 0.0132 µM (active) in the assay with SR; 0.0603 µM (active) in the assay on UACC-257; 0.0282 µM (active) in the assay on UACC-62. In the assay with UO-31, the GI50 was < 0.0151 µM (active).
As to `c1cnc2c3[nH]cc4[nH]c5ccccc5c4c-3nc2c1`, the GI50 was 44.4 µM (inactive) in the assay with 786-0; 24.2 µM (inactive) in the assay with CCRF-CEM; 54.7 µM (inactive) with COLO 205; > 100 µM (inactive) with DMS-114; 44.7 µM (inactive) in the assay with HCT-116; 36.5 µM (inactive) in the assay with K562. Moreover, the GI50 in the assay with RXF 393 was 93.3 µM (inactive); in the assay on SF-268 it was 84.5 µM (inactive); with SK-MEL-28, 50.5 µM (inactive); in the assay on SNB-19, > 100 µM (inactive); in the assay with SNB-78, > 100 µM (inactive); with UACC-257 it was > 100 µM (inactive). For the same compound, the values for the GI50 with UACC-62 and in the assay on UO-31 were > 100 µM (inactive) and 42.4 µM (inactive), respectively.
`COc1cc2c(c(OC)c1OC)CCNC2C1=C(O)COC1=O` (stereo not drawn): the GI50 in the assay on 786-0, in the assay on CCRF-CEM, in the assay on COLO 205, in the assay with DMS-114, with HCT-116 and with K562 was > 100 µM (inactive) each time. The GI50 in the assay on RXF 393, with SF-268, with SNB-19, in the assay on SNB-78, in the assay with SR and in the assay on UACC-257 was > 100 µM (inactive) each time. For the same compound, the GI50 with UACC-62 is 55.6 µM (inactive); in the assay on UO-31 it was > 100 µM (inactive).
For the compound `Nc1nc(S)nc(C(=O)Nc2nccs2)c1-c1ccccc1`, the GI50 in the assay with 786-0, in the assay on CCRF-CEM, in the assay on COLO 205, in the assay on DMS-114, in the assay with HCT-116 and in the assay with K562 was > 100 µM (inactive) in each case. In addition, the GI50 in the assay with RXF 393, in the assay on SF-268, in the assay on SK-MEL-28, with SNB-19, in the assay with SNB-78 and in the assay on SR was > 100 µM (inactive) in each case. In addition, the GI50 in the assay on UACC-257, with UACC-62 and in the assay with UO-31 was > 100 µM (inactive) throughout.
With `Cc1ccc2sc3cc(=O)cc(C)c-3nc2c1`, the GI50 is 55.1 µM (inactive) in the assay on 786-0; 17.8 µM (inactive) in the assay with CCRF-CEM; 61.9 µM (inactive) in the assay with COLO 205; 19.6 µM (inactive) in the assay on DMS-114; 80.2 µM (inactive) in the assay on HCT-116; 18.6 µM (inactive) with K562. The GI50 is 47.2 µM (inactive) with SF-268; > 100 µM (inactive) in the assay on SK-MEL-28; 40.8 µM (inactive) with SNB-19; > 100 µM (inactive) in the assay with SNB-78; 28.8 µM (inactive) in the assay on SR; 74.3 µM (inactive) with UACC-257. For the same compound, the GI50 is 14.3 µM (inactive) with UACC-62 and 26.1 µM (inactive) with UO-31.
Take `CS(=O)(=O)OCCN1CCN(C(=O)c2cccc3c(Nc4ccc(S(N)(=O)=O)cc4)c4ccccc4nc23)CC1`: the GI50 in the assay on 786-0 is > 100 µM (inactive); in the assay with CCRF-CEM it was > 44.1 µM (inactive); in the assay with COLO 205, > 50.8 µM (inactive); with DMS-114 it was > 42.2 µM (inactive); in the assay with HCT-116, > 43.9 µM (inactive); with K562 it was > 51.5 µM (inactive). Also, the GI50 in the assay on RXF 393 is > 55.2 µM (inactive); with SF-268, > 100 µM (inactive); in the assay on SK-MEL-28, > 100 µM (inactive); in the assay on SNB-19, > 49.8 µM (inactive); with SNB-78, > 100 µM (inactive); in the assay on SR it was > 100 µM (inactive). For the same compound, the GI50 in the assay with UACC-257 is > 66.7 µM (inactive); in the assay with UACC-62, > 100 µM (inactive); in the assay with UO-31, > 100 µM (inactive).
For `O=C1c2ccccc2C(=O)N1C/C=N/NS(=O)(=O)c1ccc(Br)cc1`, the GI50 in the assay on 786-0 is > 100 µM (inactive); in the assay on CCRF-CEM, > 100 µM (inactive); in the assay on COLO 205, > 100 µM (inactive); with DMS-114 it was 51.6 µM (inactive); in the assay with HCT-116, > 100 µM (inactive); in the assay on K562, > 100 µM (inactive). For the same compound, the GI50 with SF-268 was > 100 µM (inactive); with SK-MEL-28, 80 µM (inactive); with SNB-19, > 100 µM (inactive); in the assay with SNB-78 it was > 100 µM (inactive); in the assay on SR, > 100 µM (inactive); with UACC-257, > 100 µM (inactive). Moreover, the GI50 with UACC-62 and in the assay with UO-31 was > 100 µM (inactive) each time.
Consider `COc1cc2c(oc(=O)c3c4oc([Si](C)(C)C)cc4cc(OC)c23)c2cccc(OCc3ccccc3)c12`, for which the GI50 in the assay on 786-0 is 19.1 µM (inactive); in the assay on CCRF-CEM, 48.3 µM (inactive); in the assay on COLO 205, 54.2 µM (inactive); in the assay with DMS-114, 50.6 µM (inactive); in the assay with HCT-116 it was 43.2 µM (inactive); with K562 it was 57 µM (inactive). In addition, the GI50 is > 33.5 µM (inactive) in the assay on RXF 393; 26.5 µM (inactive) in the assay with SF-268; 38.3 µM (inactive) in the assay on SK-MEL-28; 23.8 µM (inactive) with SNB-19; 17 µM (inactive) in the assay with SNB-78; 37.7 µM (inactive) in the assay with SR. Also, the GI50 was 47.6 µM (inactive) in the assay on UACC-257, 17.4 µM (inactive) with UACC-62 and > 63.7 µM (inactive) in the assay on UO-31.
As for `Cc1cccc(-c2nc3c(C(=O)NCCN(C)C)cccc3[nH]2)c1`, the GI50 was 1.59 µM (inactive) in the assay on 786-0; 1.02 µM (active) in the assay with CCRF-CEM; 0.363 µM (active) in the assay on COLO 205; 1.24 µM (inactive) in the assay with DMS-114; 0.329 µM (active) in the assay on HCT-116; 0.863 µM (active) with K562. The GI50 with RXF 393 was 1.19 µM (inactive); with SF-268, 1.58 µM (inactive); in the assay on SK-MEL-28, 2.04 µM (inactive); in the assay with SNB-19, 1.98 µM (inactive); in the assay on SNB-78, 3.49 µM (inactive); in the assay on UACC-257 it was 1.67 µM (inactive). Also, the values for the GI50 in the assay with UACC-62 and in the assay on UO-31 were 1.8 µM (inactive) and 2.06 µM (inactive), respectively.
On to `O=C(Nc1nnc(S)[nH]1)C(=O)C(C(=O)c1ccc2ccccc2c1)C1OC(=O)c2ccccc21` (stereo not drawn), for which the GI50 was 14.9 µM (inactive) in the assay with 786-0; 15.5 µM (inactive) with CCRF-CEM; 15.9 µM (inactive) in the assay on COLO 205; 12.2 µM (inactive) with DMS-114; 13.7 µM (inactive) in the assay with HCT-116; 21 µM (inactive) in the assay with K562. Further, the GI50 with RXF 393 is 10.6 µM (inactive); in the assay with SF-268 it was 16.6 µM (inactive); in the assay with SK-MEL-28, 14.8 µM (inactive); in the assay with SNB-19, 7.64 µM (inactive); with SNB-78 it was 29.8 µM (inactive); in the assay with UACC-257 it was 19.7 µM (inactive). Also, the GI50 in the assay on UACC-62 is 15.6 µM (inactive); in the assay with UO-31, 15.7 µM (inactive).
Consider `CC1=CC(=O)C(=O)C2=C1OC1(C2)C(C)CCC2C3(C)CCC(O)C(C)(C)C3CCC21C` (stereo not drawn), for which the GI50 was 17.4 µM (inactive) with 786-0; 14 µM (inactive) in the assay on CCRF-CEM; 16.3 µM (inactive) with COLO 205; 14.9 µM (inactive) in the assay with DMS-114; 15.3 µM (inactive) in the assay on HCT-116; 17 µM (inactive) in the assay on K562. Also, the GI50 in the assay with RXF 393 is 15.3 µM (inactive); in the assay with SF-268, 26.4 µM (inactive); with SK-MEL-28, 20.5 µM (inactive); in the assay on SNB-19, 16.8 µM (inactive); in the assay with SNB-78, 22.4 µM (inactive); in the assay on SR, 23.8 µM (inactive). For the same compound, the GI50 is 18.9 µM (inactive) with UACC-257, 15.8 µM (inactive) in the assay with UACC-62 and 18.4 µM (inactive) in the assay with UO-31.
With `CS(=O)(=O)OCCCOS(C)(=O)=O`, the GI50 in the assay with 786-0, in the assay with CCRF-CEM, in the assay on COLO 205, in the assay on DMS-114, with HCT-116 and with K562 was > 100 µM (inactive) in each case. The GI50 with RXF 393, in the assay on SF-268, in the assay on SK-MEL-28, in the assay on SNB-19, with SNB-78 and in the assay with SR was > 100 µM (inactive) each time. The GI50 in the assay with UACC-257, in the assay with UACC-62 and in the assay on UO-31 was > 100 µM (inactive) throughout.
For `COC(=O)CC(=O)OC1C[C@@H]2CCC3C(C)(C)CCC[C@]3(C)C23CC[C@@]1(C)C3` (stereo partly drawn), the GI50 is 16.3 µM (inactive) in the assay with 786-0; > 100 µM (inactive) in the assay with CCRF-CEM; 18.6 µM (inactive) in the assay with COLO 205; 20.2 µM (inactive) in the assay with DMS-114; 17.3 µM (inactive) in the assay with HCT-116; > 100 µM (inactive) with K562. Moreover, the GI50 in the assay on RXF 393 was 18.9 µM (inactive); in the assay with SF-268, 18.5 µM (inactive); in the assay with SK-MEL-28 it was 19.8 µM (inactive); in the assay on SNB-19, 17.4 µM (inactive); in the assay on SNB-78, 19.6 µM (inactive); in the assay with SR it was > 100 µM (inactive). The GI50 was 19.1 µM (inactive) with UACC-257, 16.3 µM (inactive) in the assay on UACC-62 and 19.4 µM (inactive) in the assay with UO-31.
